We go through seven compounds from patent US8222260B2, “Substituted 6-anilinopurine derivatives as inhibitors of cytokinin oxidase/dehydrogenase and preparations containing these derivatives” (Univerzita Palackego V Olomouci, priority 2007, dated 2012).

The subject of test [1] is osteosarcoma cell line HOS. Briefly: Calcein AM cytotoxicity assay. It is filed as cell-based, human. As to conditions: 72 hours. The text has this: (§1) Absence of toxic effects against mammalian (especially human) cell lines in a wide concentration range is one of the requirements on compounds intended for use in agriculture and medicine. Because toxic compounds negatively influence metabolic processes in cells, many standard cytotoxicity assays are based on measurement of metabolisation rate of various artificial substrates. Resulting product is then quantified e.g. by means of spectrometry. The assays can be easily modified for use in 96-well plates. For evaluation of cytotoxic effect of compounds of this invention, a microtiter assay based on quantification of metabolisation of Calcein AM was used. The assay is widely used in drug screening programs and in chemosensitivity testing. In live cells, Calcein AM is enzymatically hydrolysed and accumulation of resulting calcein is manifested by green fluorescence.
Following human cell lines were used for routine screening of the compounds: T-lymphoblastic leukemia cell line CEM, promyelocytic leukemia cell line HL-60, erytroid leukemia cell line K-562, breast carcinoma cell line MCF-7, osteosarcoma cell line HOS and melanoma cell line G-361. Mouse cell lines B16-F10 (melanoma) and NIH-3T3 (fibroblasts) were used as well. The cells were maintained in Nunc/Corning 80 cm^2 plastic tissue culture flasks and cultured in cell culture medium (DMEM with 5 g/l glucose, 2 mM glutamine, 100 U/ml penicillin, 100 μg/ml streptomycin, 10% fetal calf serum and sodium bicarbonate).
(§2) The cell suspensions were prepared and diluted according to the particular cell type and the expected target cell density (2.500-30.000 cells per well based on cell growth characteristics) and pippetted (80 μl) into 96-well plates. Inoculates were allowed a pre-incubation period of 24 hours at 37° C. and 5% CO2 for stabilisation. Tested compound was added in total volume of 20 μl of water at time zero. Usually, test compound was evaluated at six 3-fold dilutions. In routine testing, the highest concentration tested was 166.6 μM. All drug concentrations were tested in triplicates. Incubations of cells with the test compounds lasted for 72 hours at 37° C., in 5% CO2 atmosphere and 100% humidity. At the end of incubation period Calcein AM in PBS was added into final concentration of 1 μg/ml. After another 1 hour of incubation fluorescence (FD) was measured with the Labsystem FIA Reader Fluoroscan Ascent (UK). Growth inhibition (GI) was estimated using the following equitation: GI=(mean FDdrug exposed wells−mean FDblank)/(mean FDcontrol wells−mean FDblank)×100%. The GI50 value, the drug concentration causing 50% reduction of Calcein AM conversion, was calculated from the obtained dose response curves.

The target of test [2] is T1, AHK3 (Arabidopsis thaliana, UniProt Q9C5U1).
T1 sequence (Q9C5U1 1-1036): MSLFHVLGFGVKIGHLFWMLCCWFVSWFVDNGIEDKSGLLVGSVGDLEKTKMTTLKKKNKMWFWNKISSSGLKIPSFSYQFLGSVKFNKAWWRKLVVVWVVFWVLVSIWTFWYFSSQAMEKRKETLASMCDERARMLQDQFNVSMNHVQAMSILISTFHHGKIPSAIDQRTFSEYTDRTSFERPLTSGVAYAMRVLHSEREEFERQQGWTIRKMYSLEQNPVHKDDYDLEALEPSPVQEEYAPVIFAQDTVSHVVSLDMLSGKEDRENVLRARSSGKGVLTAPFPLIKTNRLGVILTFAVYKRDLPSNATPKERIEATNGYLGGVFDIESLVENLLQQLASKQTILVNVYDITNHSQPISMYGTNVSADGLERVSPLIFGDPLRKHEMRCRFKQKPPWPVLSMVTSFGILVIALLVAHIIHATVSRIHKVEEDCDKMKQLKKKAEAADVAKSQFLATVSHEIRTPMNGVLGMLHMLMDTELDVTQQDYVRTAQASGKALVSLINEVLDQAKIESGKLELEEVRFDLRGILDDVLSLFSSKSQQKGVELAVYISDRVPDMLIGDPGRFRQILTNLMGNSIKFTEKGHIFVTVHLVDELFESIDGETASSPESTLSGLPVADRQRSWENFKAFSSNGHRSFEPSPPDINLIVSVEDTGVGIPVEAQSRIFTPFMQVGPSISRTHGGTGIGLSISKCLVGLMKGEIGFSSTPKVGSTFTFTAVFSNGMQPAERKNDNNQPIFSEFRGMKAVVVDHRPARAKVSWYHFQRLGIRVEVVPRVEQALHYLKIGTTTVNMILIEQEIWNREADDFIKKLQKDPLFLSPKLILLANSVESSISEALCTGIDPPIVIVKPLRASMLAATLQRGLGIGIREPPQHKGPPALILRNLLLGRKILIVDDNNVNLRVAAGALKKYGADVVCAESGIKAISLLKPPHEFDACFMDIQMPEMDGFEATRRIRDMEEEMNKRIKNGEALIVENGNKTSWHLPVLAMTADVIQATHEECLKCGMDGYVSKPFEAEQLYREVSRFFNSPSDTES
Briefly: Activation of cytokinin receptors (E. coli KMI001 beta-galactosidase reporter). It is filed as cell-based. As to conditions: 28 h incubation; n.a. means no activation. As to the method:
Escherichia coli strains KMI001 harbouring the plasmid […]4 or […]3 were grown overnight at 25° C. in M9 media enriched with 0.1% casamino acids to OD600 1. The preculture was diluted 1:600 in 1 ml M9 medium containing 0.1% casamino acids and 1 μl stock solution of either the tested compound (10^-7 M-5×10^-5 M) or solvent control (DMSO, ethanol, methanol) were added. The cultures were further grown at 25° C. in microtiter plate, 200 μl per well. […] The cultures were centrifuged and 50 μl aliquots of the supernatant were transferred to microtiter plate containing 2 μl 150 mM 4-methyl umbelliferyl galactoside which was subsequently incubated for 1 h at 37° C. The reaction was stopped by adding 100 μl 0.2 M Na2CO3. […] The EC50 value, the compound concentration activating the receptor to 50%, was calculated from the obtained dose response curves. The values shown in Table 10 are means of three replicates and the entire test was repeated at least twice.

Test [3] relates to breast carcinoma cell line MCF-7. As to the kind of experiment: Calcein AM cytotoxicity assay. Format: cell-based, human.
Text: as §1
(§3) Mouse cell lines B16-F10 (melanoma) and NIH-3T3 (fibroblasts) were used as well. The cells were maintained in Nunc/Corning 80 cm^2 plastic tissue culture flasks and cultured in cell culture medium (DMEM with 5 g/l glucose, 2 mM glutamine, 100 U/ml penicillin, 100 μg/ml streptomycin, 10% fetal calf serum and sodium bicarbonate).
as §2, with “In routine testing, the highest concentration tested was 166.6 μM.” left out, “FDblank)×100%.” for “FDblank)×100%. The GI50 value, the drug concentration causing 50% reduction of Calcein AM conversion, was calculated from the obtained dose response curves.”

Test [4] concerns Amaranthus caudatus cotyledon/hypocotyl explants. Briefly: Amaranthus bioassay (betacyanin content). It is filed as cell-based, Amaranthus caudatus var. atropurpurea. As to conditions: for Activity (%) [10^−5 mol · l^−1 K = 100%]: at the concentration with highest activity, relative to 10^−5 M kinetin. Here is the method:
The standard Amaranthus bioassay was performed with the following modifications. The seeds of Amaranthus caudatus var. atropurpurea were surface-sterilised in 10% (w/v) N-chlorobenzenesulfonamide for 10 min and washed 5 times with deionized water. They were placed in 15 cm Petri dishes containing paper tissues saturated with deionized water. After 72 h of cultivation at 25° C. in darkness, the roots of the seedlings were cut off. The explants, consisting of two cotyledons and hypocotyls, were placed in 5 cm Petri dishes onto two layers of filtration paper soaked with 1 ml of the incubation medium containing 10 μmol of Na2HPO4—KH2PO4, pH 6.8, 5 μmol of tyrosine and the compound to be tested. There were 20 explants per dish. The procedure was carried out under green safe light in a darkroom. After 48 h of incubation at 25° C. in darkness, betacyanin was extracted by freezing the explants in 4 ml 3.33 μM acetic acid. The concentration of betacyanin was determined from the absorbances at 537 nm and 620 nm as follows: ΔA=A537nm−A620nm. The values ΔA were plotted against the concentration tested, are means of five replicates and the entire test was repeated at least twice. […] The compounds to be tested were dissolved in dimethylsulfoxide (DMSO) and the solution brought up to 10^−3M with distilled water.
From the obtained data, the concentration with the highest activity was selected for each compound tested. Relative activity of the compound at this concentration was calculated (Tab. 12). The activity obtained for 10^−5 M kinetin (K) was postulated as 100%.

In test [5] the test system is NIH-3T3 (fibroblasts). Briefly: Calcein AM cytotoxicity assay. Format: cell-based, Mouse.
Text: as §1, §3
as §2, with “In routine testing, the highest concentration tested was 166.6 μM.” left out, “FDblank)×100%.” for “FDblank)×100%. The GI50 value, the drug concentration causing 50% reduction of Calcein AM conversion, was calculated from the obtained dose response curves.”

Test [6] concerns cytokinin-dependent tobacco callus Nicotiana tabacum L. cv. Wisconsin 38. Briefly: Tobacco callus biotest (plant cell division). Format: cell-based. Here is the method: The stimulatory effect of the newly prepared derivatives was tested in the calus biotest using cytokinin-dependent tobacco callus. Cytokinin-dependent tobacco callus Nicotiana tabacum L. cv. Wisconsin 38 was maintained at 25° C. in darkness on modified Murashige-Skoog medium, containing per 1 liter: 4 μmol of nicotinic acid, 2.4 μmol of pyridoxine hydrochloride, 1.2 μmol of thiamine, 26.6 μmol of glycine, 1.37 μmol of glutamine, 1.8 μmol of myo-inositol, 30 g of sucrose, 8 g of agar, 5.37 μmol of NAA and 0.5 μmol of 6-benzylaminopurine. Subcultivation was carried out every three weeks. Fourteen days before the bioassay, the callus tissue was transferred to the media without 6-benzylaminopurine. The biological activity was determined from the increase of the fresh callus weight after four weeks of cultivation. Five replicates were prepared for each concentration of the compound tested and the entire test was repeated twice. […] The compounds to be tested were dissolved in dimethylsulfoxide (DMSO) and the solution brought up to 10^−3 M with distilled water.
From the obtained data, the concentration with the highest activity was selected for each compound tested. Relative activity of the compound at this concentration was calculated (Table 11). The activity obtained for 10^−5 M of the control substance kinetin (K) was postulated as 100%.

Molecules are shown by their SMILES. Read-outs that look alike come from different tables or passages of the source.

On to `Nc1nc(Nc2ccccc2)c2nc[nH]c2n1` [Compound 64], for which the GI50 – broadly, the concentration at which growth is held to half of that of the control – was over 167 µM in test [1] (Homo sapiens); over 167 µM in test [3] (Homo sapiens, MCF7, 72 hours); over 167 µM in test [5] (Mus musculus, NIH3T3, 72 hours). Also, the EC50 (commonly the concentration needed to bring the measured effect to its halfway point) in test [2] amounted to 25.3 µM. Further, the “Activity (%) [10^−5 mol · l^−1 K = 100%]” value in test [4] is 125.2%.
With `Sc1nc(Nc2ccccc2)c2nc[nH]c2n1` [Compound 78, 2-Thio-6-anilinopurine], the GI50 is over 167 µM in test [1]; over 167 µM in test [3] (72 hours, read-out: GI50 MCF7); over 167 µM in test [5] (72 hours).
`COc1ccccc1Nc1nc(S)nc2nc[nH]c12` [Compound 87]: the GI50 was over 167 µM in test [1]; over 167 µM in test [3] (72 hours, read-out: GI50 MCF7); over 167 µM in test [5] (72 hours).
`CSc1nc(Nc2ccccc2)c2[nH]cnc2n1` [Compound 94, 2-Methylthio-6-anilinopurine]: the GI50 in test [1] (Homo sapiens) is over 167 µM; in test [3] (Homo sapiens, MCF7, 72 hours) it was over 167 µM; in test [5] (Mus musculus, NIH3T3, 72 hours) it was over 167 µM.
On to `CSc1nc(Nc2cccc(O)c2)c2nc[nH]c2n1` [Compound 101], for which the GI50 in test [1] was over 167 µM; in test [3] (72 hours, read-out: GI50 MCF7) it was over 167 µM; in test [5] (72 hours) it was over 167 µM.
On to `COc1cccc(Nc2nc(SC)nc3[nH]cnc23)c1` [Compound 103], for which the GI50 in test [1] is over 167 µM; in test [3] (72 hours, read-out: GI50 MCF7), over 167 µM; in test [5] (72 hours) it was over 167 µM. The “Activity (%) [10^−5 mol · l^−1 K = 100%]” value is 142.8% in test [6] (at the concentration with highest activity, relative to 10^−5 M kinetin) and 156.4% in test [4]. The “concentration with highest activity” value in test [6] (fresh weight after four weeks) and in test [4] (48 h) was 10^−5 mol · l^−1 throughout.
Regarding `Cc1nc(Nc2cccc(O)c2)c2nc[nH]c2n1` [Compound 116], the GI50 in test [1] was over 167 µM; in test [3] (72 hours, read-out: GI50 MCF7), over 167 µM; in test [5] (72 hours) it was over 167 µM.
